Counter-ions that a name gives are not always drawn. Like-named read-outs stand apart in the source and are kept apart here.

This note sets out measurements from patent publication US5750754A, “Heterocyclic compounds” (Zeneca Limited, priority 1993, dated 1998).

Assay [1] addresses T1, human, citrated, platelet-rich plasma (Homo sapiens, UniProt P05106+P08514).
T1 construct: aggregating human, citrated, platelet-rich plasma; endogenous in cells; host or cells: human platelets in citrated platelet-rich plasma
Kind of assay: Test (a): inhibition of ADP stimulated platelet aggregation (Born). It is filed as cell-based. To be noted: ADP induced aggregation of human platelet-rich plasma. Put shortly: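 pA2 calculated by comparing ADP EC50-type (50% response) values in presence and absence of compound, averaged across concentrations (generally 10-^5 M to 10-^10 M). Aggregation (Born) induced by ADP in citrated human platelet-rich plasma, giving dose-response curves.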

Assay [2] concerns the target T2, purified human platelet fibrinogen receptor (GPIIb/IIIa) (Homo sapiens, UniProt P05106+P08514).
T2 construct: is isolated from human platelet lysates; from tissue
Kind of assay: Test (b): GPIIb/IIIa ELISA, inhibition of biotinylated fibrinogen binding. Conditions: purified human platelet GPIIb/IIIa, ELISA. Summed up: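 Inhibition of biotinylated fibrinogen ([…]) binding to immobilised human platelet fibrinogen receptor, purified by KYGRGDS peptide affinity chromatography, was measured after 2 h at 30 °C. Readout: streptavidin–biotin-HRP colour with TMB at […]; value expressed as pIC50.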
On the technique in general: In an ELISA, binding on a coated surface is turned into a signal by an enzyme label.

The mark [3] stands for this setting: read-out: Test (a): pA2 value indicating potency of platelet aggregation inhibition (converted).
[4] abbreviates: read-out: Test (b): pIC50 (-log(IC50)), 50% inhibition of biotinylated fibrinogen binding to GPIIb/IIIa (converted).

T1 sequence (P08514 32-887 limits assumed): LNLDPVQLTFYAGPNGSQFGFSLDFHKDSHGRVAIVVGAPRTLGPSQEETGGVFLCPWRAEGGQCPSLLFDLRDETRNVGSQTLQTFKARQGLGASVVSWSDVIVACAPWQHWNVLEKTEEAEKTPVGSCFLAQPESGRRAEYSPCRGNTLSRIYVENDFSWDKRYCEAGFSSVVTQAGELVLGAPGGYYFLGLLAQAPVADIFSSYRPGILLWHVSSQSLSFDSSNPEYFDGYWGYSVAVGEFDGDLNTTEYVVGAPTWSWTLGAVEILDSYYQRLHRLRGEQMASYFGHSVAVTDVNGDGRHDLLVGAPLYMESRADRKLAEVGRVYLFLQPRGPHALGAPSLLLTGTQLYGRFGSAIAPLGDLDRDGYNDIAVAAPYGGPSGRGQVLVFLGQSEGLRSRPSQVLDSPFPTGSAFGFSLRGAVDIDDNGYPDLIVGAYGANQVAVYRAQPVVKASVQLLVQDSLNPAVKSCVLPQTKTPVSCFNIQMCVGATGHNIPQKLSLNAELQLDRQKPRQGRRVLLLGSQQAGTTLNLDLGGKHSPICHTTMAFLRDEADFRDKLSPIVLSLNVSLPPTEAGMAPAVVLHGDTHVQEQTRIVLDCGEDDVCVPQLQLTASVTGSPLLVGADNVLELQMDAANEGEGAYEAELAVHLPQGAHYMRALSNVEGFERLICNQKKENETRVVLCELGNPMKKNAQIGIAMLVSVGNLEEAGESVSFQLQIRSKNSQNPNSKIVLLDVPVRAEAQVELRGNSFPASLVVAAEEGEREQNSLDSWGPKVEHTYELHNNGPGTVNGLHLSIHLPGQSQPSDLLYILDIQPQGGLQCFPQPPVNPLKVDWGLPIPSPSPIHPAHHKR
T1 sequence (P08514 891-1039 limits assumed): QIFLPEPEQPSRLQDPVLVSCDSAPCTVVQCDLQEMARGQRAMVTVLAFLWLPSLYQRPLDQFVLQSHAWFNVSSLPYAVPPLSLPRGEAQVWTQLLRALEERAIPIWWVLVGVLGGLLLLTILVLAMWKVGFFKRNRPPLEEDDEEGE
T1 sequence (P05106 27-788): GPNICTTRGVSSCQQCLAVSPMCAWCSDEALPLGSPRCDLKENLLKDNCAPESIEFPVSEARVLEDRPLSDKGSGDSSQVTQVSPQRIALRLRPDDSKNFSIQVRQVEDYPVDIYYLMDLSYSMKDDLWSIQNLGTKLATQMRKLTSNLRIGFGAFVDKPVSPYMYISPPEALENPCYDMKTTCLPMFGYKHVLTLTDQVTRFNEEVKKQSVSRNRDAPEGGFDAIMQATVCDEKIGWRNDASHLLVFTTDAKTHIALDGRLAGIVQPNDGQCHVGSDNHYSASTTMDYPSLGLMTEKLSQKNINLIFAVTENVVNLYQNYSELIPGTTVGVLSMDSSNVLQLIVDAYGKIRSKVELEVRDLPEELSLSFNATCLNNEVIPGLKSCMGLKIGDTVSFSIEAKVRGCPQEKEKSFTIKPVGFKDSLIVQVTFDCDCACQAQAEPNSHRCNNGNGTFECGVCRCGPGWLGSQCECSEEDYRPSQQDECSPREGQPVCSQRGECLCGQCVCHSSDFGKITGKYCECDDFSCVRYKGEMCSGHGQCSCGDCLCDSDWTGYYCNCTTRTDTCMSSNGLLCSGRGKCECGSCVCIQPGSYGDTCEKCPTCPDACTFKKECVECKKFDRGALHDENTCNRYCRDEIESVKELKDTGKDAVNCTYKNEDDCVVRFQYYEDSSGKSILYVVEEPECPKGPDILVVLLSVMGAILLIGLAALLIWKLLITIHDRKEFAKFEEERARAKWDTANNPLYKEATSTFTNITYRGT
T2 sequence (P08514 32-887 limits assumed): as the sequence (P08514 32-887 limits assumed) above
T2 sequence (P08514 891-1039 limits assumed): as the sequence (P08514 891-1039 limits assumed) above
T2 sequence (P05106 27-788): as the sequence (P05106 27-788) above

For the compound `O=C(O)COc1ccc2c(=O)c(N3CCN(c4ccncc4)CC3)cn(Cc3ccccc3)c2c1` [Example 49, [1-Benzyl-3-[4-(4-pyridyl)piperazin-1-yl]-4-quinolon-7-yl]oxyacetic acid trifluoroacetate salt], in assay [1] (setting [3]), the Kb is 0.0794 µM. Further, the IC50 in assay [2] (setting [4]) was 0.00631 µM.
For `O=C(O)Cc1ccc(C(=O)CN2CCN(c3ccncc3)CC2)cc1` [Example 15, 4-[2-[4-(4-Pyridyl)piperazin-1-yl]acetyl]phenylacetic acid, trifluoroacetate salt], in assay [1] (setting [3]), the Kb is 2.51 µM. For the same compound, the IC50 in assay [2] (setting [4]) is 1.26 µM.
In the same order, the values of `COC(=O)CCNC(=O)CCCCN1CCN(c2ccncc2)CC1` [Example 197, Methyl 3-[5-[4-(4-pyridyl)piperazine-1-yl]petanoyl]aminopropionate] are 63.1 µM and 15.8 µM.
As to `CC(C)OC(=O)COc1ccc(C(=O)CN2CCN(c3ccncc3)CC2)cc1` [Example 137, iso-Propyl 4-[2-[4-(4-pyridyl)piperazin-1-yl]acetyl]phenoxyacetate], the Kb in assay [1] (setting [3]) was 0.0631 µM. The IC50 in assay [2] (setting [4]) was 3.16 µM.
For `CCCCS(=O)(=O)N[C@@H](Cc1ccc(OCCCC2CCN(c3ccncc3)CC2)cc1)C(=O)OC` [Example 81, Methyl 2-S-(n-butylsulphonylamino)-3-[4-[3-[1-(4-pyridyl)piperidin-4-yl]propoxy]phenyl]propionate], in that order: 15.8 µM and 0.2 µM.
For `C=CC(COc1ccc(N2CCN(c3ccncc3)CC2)cc1)CC(=O)O` (racemic) [Example 204, RS-4-[4-[4-(4-Pyridyl)piperazin-1-yl]phenoxy]-3-vinylbutyric acid, sodium salt], in that order: 0.0794 µM and 0.00126 µM.
For `O=C(O)CCNC(=O)CCCN1CCN(c2ccncc2)CC1` [Example 195, 3-[4-[4-(4-Pyridyl)piperazin-1-yl]butyryl]aminopropionic acid, trifluoroacetate], in that order: 2.51 µM and 0.158 µM.
As to `COC(=O)CCCc1ccc(CN2CCN(c3ccncc3)CC2)cc1` [Example 178, Methyl 4-[4-[4-(4-pyridyl)piperazin-1-yl]methylphenyl]butyrate], in assay [1] (setting [3]), the Kb was 3.16 µM. Further, the IC50 in assay [2] (setting [4]) was 1 µM.
Turning to `COC(=O)[C@H](Cc1ccc(OCCC2CCN(c3ccncc3)CC2)cc1)NS(=O)(=O)Cc1ccccc1` [Example 86, Methyl 2-S-(benzylsulphonylamino)-3-[4-[2-[1-(4-pyridyl)piperidin-4-yl]ethoxy]phenyl]propionate], the Kb in assay [1] (setting [3]) is 3.98 µM. The IC50 in assay [2] (setting [4]) is 0.2 µM.
In the same order, the values of `COC(=O)C(Cc1ccc(OCc2cnccc2N(C)C)cc1)NC(=O)OCc1ccccc1` (stereo not drawn) [Example 114, Methyl3-(4-dimethylamninopyrid-3-yl)methoxyphenoxyl-2-benzyloxycarbonylaminopropanoate] are greater than 100 µM and 2.51 µM.
For the compound `CCCCS(=O)(=O)NC(Cc1ccc(CN2CCN(c3ccncc3)CC2)cc1)C(=O)O` (racemic) [Example 68, 2-RS-(n-Butylsulphonylamino)-3-[4-(4-pyridyl)piperazin-1-ylmethylene]phenylpropionic acid], the Kb in assay [1] (setting [3]) is 0.316 µM. Besides, the IC50 in assay [2] (setting [4]) is 0.0126 µM.
In the same order, the values of `COC(=O)CNC(=O)COc1ccc(C(=O)CN2CCN(c3ccncc3)CC2)cc1` [Example 146, Methyl N-[4-[2-[4-(4-pyridyl)piperazin-1-yl]acetyl]phenoxyacetyl]glycinate] are 7.94 µM and 6.31 µM.
In the same order, the values of `Cc1ccc(S(=O)(=O)N[C@@H](Cc2ccc(OCCC3CCN(c4ccncc4)CC3)cc2)C(=O)O)cc1` [Example 90, Lithium 2-S-(4-methylphenylsulphonylamino)-3-[4-[2-[1-(4-pyridyl)piperidin-4-yl]ethoxy]phenyl]propionate] are 0.01 µM and 0.00316 µM.
For `O=C(O)CO[C@@H]1CCN(C(=O)CN2CCN(c3ccncc3)CC2)C[C@H]1OCC(=O)O` (relative stereo) [Example 105], in that order: 0.251 µM and 0.251 µM.
For `O=C(CN1CCN(c2ccncc2)CC1)c1ccc(OCc2nnn[nH]2)cc1` [Example 141, 5-[4-[2-[4-(4-Pyridyl)piperazin-1-yl]acetyl]phenoxymethyl]tetrazole], in assay [1] (setting [3]), the Kb is 31.6 µM. In addition, the IC50 in assay [2] (setting [4]) is 31.6 µM.
Take `O=C(O)C[C@H](NC(=O)CNC(=O)CN1CCN(c2ccncc2)CC1)C(=O)N[C@@H](Cc1ccccc1)C(=O)O` [Example 40]: the Kb in assay [1] (setting [3]) is 0.0794 µM. The IC50 in assay [2] (setting [4]) is 0.02 µM.
Take `COC(=O)CCNC(=O)c1ccc(N2CCN(c3ccncc3)CC2)cc1` [Example 56, Methyl 3-[4-[4-(4-pyridyl)piperazin-1-yl]]benzaminopropionate]: in assay [1] (setting [3]), the Kb is 3.16 µM. For the same compound, the IC50 in assay [2] (setting [4]) was 15.8 µM.
Turning to `COC(=O)CC(NC(=O)c1ccc(N2CCN(c3ccncc3)CC2)cc1)c1ccccc1` (stereo not drawn) [Example 58, Methyl 3-[4-[4-(4-pyridyl)piperazin-1-yl]benzamido]-3-phenylpropionate], the Kb in assay [1] (setting [3]) was 3.16 µM. Also, the IC50 in assay [2] (setting [4]) was 39.8 µM.
In the same order, the values of `COC(=O)COc1cc(OCC(=O)OC)cc(C(=O)CN2CCN(c3ccncc3)CC2)c1` [Example 133, Dimethyl 2,2'-[5-[2-[4-(4-pyridyl)piperazin-1-yl]acetyl]phenylene-1,3-dioxy]diacetate] are 2 µM and 31.6 µM.
For `Cc1ccc(S(=O)(=O)NCCc2ccc(C(=O)CN3CCN(c4ccncc4)CC3)cc2)cc1` [Example 23, N-[2-[4-[2-[4-(4-Pyridyl)piperazin-1-yl]acetyl]phenyl]ethyl]-4-methylphenylsulphonamide], in that order: 1 µM and 6.31 to 31.6 µM.
For the compound `CC(C(=O)c1ccc(OCC(=O)O)c(OCC(=O)O)c1)N1CCN(c2ccncc2)CC1` (stereo not drawn) [Example 79, 4-[2-[(4-Pyridyl)piperazin-1-yl]-2-methyl]acetyl-1,2-diphenoxydiacetic acid], the Kb in assay [1] (Test (a): pA2 value indicating potency of platelet aggregation inhibition) was 0.0126 µM. In addition, the IC50 in assay [2] (Test (b): pIC50 (-log(IC50)), 50% inhibition of biotinylated fibrinogen binding to GPIIb/IIIa) is 0.00316 µM.
In the case of `CCCCC(=O)N[C@@H](Cc1ccc(OCCC2CCN(c3ccncc3)CC2)cc1)C(=O)O` [Example 93, 2-S-(Pentanoylamino)-3-[4-[2-[1-(4-pyridyl)piperidin-4-yl]ethoxy]phenyl]propionic acid], the Kb in assay [1] (setting [3]) is 0.0126 µM. Also, the IC50 in assay [2] (setting [4]) is 0.00316 µM.
For `O=C(O)CSc1ccc(C(=O)CN2CCN(c3ccncc3)CC2)cc1` [Example 10], in that order: 2 µM and 1 µM.
In the same order, the values of `O=C(O)CC(NC(=O)c1ccc(N2CCN(c3ccncc3)CC2)cc1)c1ccccc1` (stereo not drawn) [Example 59, 3-[4-[4-(4-Pyridy)piperazin-1-yl]benzamido]-3-phenylpropionic acid] are 0.0631 µM and 0.0316 µM.
For `O=C(N[C@@H](Cc1ccc(OCCC2CCN(c3ccncc3)CC2)cc1)C(=O)O)OCc1ccccc1` [Example 94, 2-S-(Benzyloxycarbonylamino)-3-[4-[2-[1-(4-pyridyl)piperidin-4-yl]ethoxy]phenyl]propionic acid], in that order: 0.316 µM and 0.00251 µM.
In the case of `COC(=O)COc1ccc(OCC2CCN(c3ccncc3)CC2)cc1` [Example 157, Methyl 4-[1-(4-pyridyl)piperidin-4-yl]methoxyphenoxyacetate], the Kb in assay [1] (setting [3]) was 0.316 µM. Also, the IC50 in assay [2] (setting [4]) is 0.0794 µM.
For `O=C(O)COc1ccc(OC2CCN(c3ccncc3)CC2)cc1` [Example 156, 4-[1-(4-Pyridyl)piperidin-4-yl]oxyphenoxyacetic acid], in that order: 20 µM and 1.58 µM.
Turning to `CCCCC(=O)N[C@@H](Cc1ccc(OCC2CCN(c3ccncc3)CC2)cc1)C(=O)OC` [Example 92, Methyl 2-S-(pentanoylamino)-3-[4-[1-(4-pyridyl)piperidin-4-yl]methoxyphenyl]propionate], the Kb in assay [1] (setting [3]) is 2 µM. In assay [2] (setting [4]), the IC50 was 0.0794 µM.
As for `O=C(O)CCCOc1ccc(N2CCN(c3ccncc3)CC2)cc1` [Example 200, 4-[4-[4-(4-Pyridyl)piperazine-1-yl]phenoxy]butyric acid, hydrochloride salt], the Kb in assay [1] (setting [3]) was 0.0126 µM. The IC50 in assay [2] (setting [4]) is 0.00398 µM.
In the same order, the values of `CS(=O)(=O)NCCc1ccc(NC(=O)C2CCN(c3ccncc3)CC2)cc1` [Example 183, N-[2-[4-[1-(4-Pyridyl)piperidin-4-yl]carboxamidophenyl]ethyl]methanesulphonamide] are 31.6 µM and greater than 100 µM.
In the same order, the values of `O=C(O)C[C@H](NC(=O)CN1CCN(c2ccncc2)CC1)C(=O)N[C@@H](Cc1ccccc1)C(=O)O` [Example 39, N-[N-[2-[4-(4-Pyridyl)piperazin-1-yl]acetal]-L-aspartyl]-L-phenylalanine] are 25.1 µM and 0.251 µM.
Turning to `O=C(O)CCNC(=O)CCCCN1CCN(c2ccncc2)CC1` [Example 198, 3-[5-[4-(4-Pyridyl)piperazine-1-yl]pentanoyl]aminopropionic acid], the Kb in assay [1] (setting [3]) is 0.794 µM. In assay [2] (setting [4]), the IC50 was 0.02 µM.
As for `CCOC(=O)CCCOc1cccc(N2CCN(c3ccncc3)CC2)c1` [Example 226, Ethyl 3-[4-(4-pyridyl)piperazin-1-yl]phenoxybutyrate], the Kb in assay [1] (setting [3]) is 20 µM. In assay [2] (setting [4]), the IC50 was 3.16 µM.
